Assay results: the supplement of paper PMC8882468

test system: HCI-027 (organoid from a triple-negative breast cancer xenograft); test: CTG-3D luminescence at 96 h relative to day-0 seeding control (ratio to day 0); higher = more growth / less cytotoxicity; PDxO 3D drug screen, 96 h, CTG-3D normalised to day-0 seeding control.; conditions: 12.5 pM; days in culture: 176

Point of comparison: `CNC(=O)c1cccc(-c2ccc3c(N4CCOC[C@@H]4C)nc(N4CCOC[C@@H]4C)nc3n2)c1` [vistusertib], “CTG-3D luminescence at 96 h” value 2.07. Against it:
- CC(C)(C(=O)NCC(F)(F)C(F)(F)F)C(=O)N[C@@H]1C(=O)Nc2ccccc2-c2ccccc21 — higher, 2.35
- C=CC(=O)N1CCC[C@@H](n2nc(-c3ccc(Oc4ccccc4)cc3)c3c(N)ncnc32)C1 [ibrutinib] — lower, 1.63
- CCN(c1cc(C#CCN2CCOCC2)cc(C(=O)NCc2c(C)cc(C)[nH]c2=O)c1C)[C@H]1CC[C@H](N(C)CCOC)CC1 — lower, 2.06

same assay, conditions: 12.5 pM; days in culture: 194

Point of comparison: `C=CC(=O)N1CCC[C@@H](n2nc(-c3ccc(Oc4ccccc4)cc3)c3c(N)ncnc32)C1` [ibrutinib], “CTG-3D luminescence at 96 h” value 1.68. Against it:
- CC(C)(C(=O)NCC(F)(F)C(F)(F)F)C(=O)N[C@@H]1C(=O)Nc2ccccc2-c2ccccc21 — lower, 1.64
- CNC(=O)c1cccc(-c2ccc3c(N4CCOC[C@@H]4C)nc(N4CCOC[C@@H]4C)nc3n2)c1 [vistusertib] — higher, 1.93
- CCN(c1cc(C#CCN2CCOCC2)cc(C(=O)NCc2c(C)cc(C)[nH]c2=O)c1C)[C@H]1CC[C@H](N(C)CCOC)CC1 — higher, 2.66

same assay, conditions: 12.5 pM; days in culture: 201

Point of comparison: `C=CC(=O)N1CCC[C@@H](n2nc(-c3ccc(Oc4ccccc4)cc3)c3c(N)ncnc32)C1` [ibrutinib], “CTG-3D luminescence at 96 h” value 2.12. Against it:
- CC(C)(C(=O)NCC(F)(F)C(F)(F)F)C(=O)N[C@@H]1C(=O)Nc2ccccc2-c2ccccc21 — higher, 2.24
- CNC(=O)c1cccc(-c2ccc3c(N4CCOC[C@@H]4C)nc(N4CCOC[C@@H]4C)nc3n2)c1 [vistusertib] — lower, 1.74
- CCN(c1cc(C#CCN2CCOCC2)cc(C(=O)NCc2c(C)cc(C)[nH]c2=O)c1C)[C@H]1CC[C@H](N(C)CCOC)CC1 — higher, 3.28

same assay, conditions: 0.00025 µM; days in culture: 176

Point of comparison: `CCN(c1cc(C#CCN2CCOCC2)cc(C(=O)NCc2c(C)cc(C)[nH]c2=O)c1C)[C@H]1CC[C@H](N(C)CCOC)CC1`, “CTG-3D luminescence at 96 h” value 2.13. Against it:
- CC(C)(C(=O)NCC(F)(F)C(F)(F)F)C(=O)N[C@@H]1C(=O)Nc2ccccc2-c2ccccc21 — lower, 1.45
- C=CC(=O)N1CCC[C@@H](n2nc(-c3ccc(Oc4ccccc4)cc3)c3c(N)ncnc32)C1 [ibrutinib] — lower, 1.35
- CNC(=O)c1cccc(-c2ccc3c(N4CCOC[C@@H]4C)nc(N4CCOC[C@@H]4C)nc3n2)c1 [vistusertib] — lower, 1.54

same assay, conditions: 0.00025 µM; days in culture: 194

Point of comparison: `CNC(=O)c1cccc(-c2ccc3c(N4CCOC[C@@H]4C)nc(N4CCOC[C@@H]4C)nc3n2)c1` [vistusertib], “CTG-3D luminescence at 96 h” value 1.49. Against it:
- CC(C)(C(=O)NCC(F)(F)C(F)(F)F)C(=O)N[C@@H]1C(=O)Nc2ccccc2-c2ccccc21 — lower, 1.41
- C=CC(=O)N1CCC[C@@H](n2nc(-c3ccc(Oc4ccccc4)cc3)c3c(N)ncnc32)C1 [ibrutinib] — higher, 1.52
- CCN(c1cc(C#CCN2CCOCC2)cc(C(=O)NCc2c(C)cc(C)[nH]c2=O)c1C)[C@H]1CC[C@H](N(C)CCOC)CC1 — higher, 1.86

same assay, conditions: 0.00025 µM; days in culture: 201

Point of comparison: `CCN(c1cc(C#CCN2CCOCC2)cc(C(=O)NCc2c(C)cc(C)[nH]c2=O)c1C)[C@H]1CC[C@H](N(C)CCOC)CC1`, “CTG-3D luminescence at 96 h” value 3.2. Against it:
- CC(C)(C(=O)NCC(F)(F)C(F)(F)F)C(=O)N[C@@H]1C(=O)Nc2ccccc2-c2ccccc21 — lower, 1.62
- C=CC(=O)N1CCC[C@@H](n2nc(-c3ccc(Oc4ccccc4)cc3)c3c(N)ncnc32)C1 [ibrutinib] — lower, 1.48
- CNC(=O)c1cccc(-c2ccc3c(N4CCOC[C@@H]4C)nc(N4CCOC[C@@H]4C)nc3n2)c1 [vistusertib] — lower, 2.52

same assay, conditions: 0.005 µM; days in culture: 176

Point of comparison: `CCN(c1cc(C#CCN2CCOCC2)cc(C(=O)NCc2c(C)cc(C)[nH]c2=O)c1C)[C@H]1CC[C@H](N(C)CCOC)CC1`, “CTG-3D luminescence at 96 h” value 3.35. Against it:
- CC(C)(C(=O)NCC(F)(F)C(F)(F)F)C(=O)N[C@@H]1C(=O)Nc2ccccc2-c2ccccc21 — lower, 1.79
- C=CC(=O)N1CCC[C@@H](n2nc(-c3ccc(Oc4ccccc4)cc3)c3c(N)ncnc32)C1 [ibrutinib] — lower, 2.52
- CNC(=O)c1cccc(-c2ccc3c(N4CCOC[C@@H]4C)nc(N4CCOC[C@@H]4C)nc3n2)c1 [vistusertib] — lower, 3.05

same assay, conditions: 0.005 µM; days in culture: 194

Point of comparison: `CNC(=O)c1cccc(-c2ccc3c(N4CCOC[C@@H]4C)nc(N4CCOC[C@@H]4C)nc3n2)c1` [vistusertib], “CTG-3D luminescence at 96 h” value 1.77. Against it:
- CC(C)(C(=O)NCC(F)(F)C(F)(F)F)C(=O)N[C@@H]1C(=O)Nc2ccccc2-c2ccccc21 — lower, 1.38
- C=CC(=O)N1CCC[C@@H](n2nc(-c3ccc(Oc4ccccc4)cc3)c3c(N)ncnc32)C1 [ibrutinib] — lower, 1.52
- CCN(c1cc(C#CCN2CCOCC2)cc(C(=O)NCc2c(C)cc(C)[nH]c2=O)c1C)[C@H]1CC[C@H](N(C)CCOC)CC1 — higher, 2.09
